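Compound exposure: 48 hours, 5 concentrations, 96-well plates. Definition used: TGI = concentration required for complete inhibition of growth.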
Key:
Assay in all cases: NCI anticancer screen, dose series, 48 h
786-0 renal = test system: 786-0 renal
A498 renal = test system: A498 renal
A549 NSCLC = test system: A549 NSCLC
ACHN renal = test system: ACHN renal
BT-549 breast = test system: BT-549 breast
CAKI-1 renal = test system: CAKI-1 renal
CCRF-CEM leukemia = test system: CCRF-CEM leukemia
COLO 205 colon = test system: COLO 205 colon
DU-145 prostate = test system: DU-145 prostate
EKVX NSCLC = test system: EKVX NSCLC
HCT-116 colon = test system: HCT-116 colon
HCT-15 colon = test system: HCT-15 colon
HL-60(TB) leukemia = test system: HL-60(TB) leukemia
HOP-62 NSCLC = test system: HOP-62 NSCLC
HOP-92 NSCLC = test system: HOP-92 NSCLC
HS 578T breast = test system: HS 578T breast
HT29 colon = test system: HT29 colon
IGROV1 ovarian = test system: IGROV1 ovarian
K-562 leukemia = test system: K-562 leukemia
KM12 colon = test system: KM12 colon
LOX IMVI melanoma = test system: LOX IMVI melanoma
M14 melanoma = test system: M14 melanoma
MALME-3M melanoma = test system: MALME-3M melanoma
MCF7 breast = test system: MCF7 breast
MDA-MB-231 breast = test system: MDA-MB-231 breast
MDA-MB-435 = test system: MDA-MB-435
MDA-N = test system: MDA-N
MOLT-4 leukemia = test system: MOLT-4 leukemia
NCI-H226 lung = test system: NCI-H226 lung
NCI-H23 lung = test system: NCI-H23 lung
NCI-H460 lung = test system: NCI-H460 lung
NCI-H522 lung = test system: NCI-H522 lung
NCI/ADR-RES ovarian = test system: NCI/ADR-RES ovarian
OVCAR-3 ovarian = test system: OVCAR-3 ovarian
OVCAR-4 ovarian = test system: OVCAR-4 ovarian
OVCAR-5 ovarian = test system: OVCAR-5 ovarian
OVCAR-8 ovarian = test system: OVCAR-8 ovarian
PC-3 prostate = test system: PC-3 prostate
RPMI-8226 leukemia = test system: RPMI-8226 leukemia
RXF 393 renal = test system: RXF 393 renal
SF-268 CNS = test system: SF-268 CNS
SF-295 CNS = test system: SF-295 CNS
SF-539 CNS = test system: SF-539 CNS
SK-MEL-2 melanoma = test system: SK-MEL-2 melanoma
SK-MEL-28 melanoma = test system: SK-MEL-28 melanoma
SK-MEL-5 melanoma = test system: SK-MEL-5 melanoma
SK-OV-3 ovarian = test system: SK-OV-3 ovarian
SN12C renal = test system: SN12C renal
SNB-19 CNS = test system: SNB-19 CNS
SNB-75 CNS = test system: SNB-75 CNS
SR leukemia = test system: SR leukemia
SW-620 colon = test system: SW-620 colon
T-47D breast = test system: T-47D breast
TK-10 renal = test system: TK-10 renal
U251 CNS = test system: U251 CNS
UACC-257 melanoma = test system: UACC-257 melanoma
UACC-62 melanoma = test system: UACC-62 melanoma
UO-31 renal = test system: UO-31 renal

COC(=O)CC[C@@H](C)[C@H]1CC[C@H]2[C@@H]3CC[C@@H]4C[C@H](O)CC[C@]4(C)[C@H]3CC[C@]12C
TGI (786-0 renal): 33.8 µM
TGI (A498 renal): 35.1 µM
TGI (A549 NSCLC): 36.6 µM
TGI (ACHN renal): 39.8 µM
TGI (BT-549 breast): 33.8 µM
TGI (CAKI-1 renal): 34.1 µM
TGI (CCRF-CEM leukemia): 46.4 µM
TGI (COLO 205 colon): 35.4 µM
TGI (DU-145 prostate): 32.6 µM
TGI (EKVX NSCLC): 35.6 µM
TGI (HCT-116 colon): 31.8 µM
TGI (HCT-15 colon): 33.7 µM
TGI (HL-60(TB) leukemia): 35.5 µM
TGI (HOP-62 NSCLC): 35.5 µM
TGI (HOP-92 NSCLC): 27.8 µM
TGI (HS 578T breast): 55.8 µM
TGI (HT29 colon): 31.9 µM
TGI (IGROV1 ovarian): 35.4 µM
TGI (K-562 leukemia): 65.7 µM
TGI (KM12 colon): 34.5 µM
TGI (LOX IMVI melanoma): 35.7 µM
TGI (M14 melanoma): 35.8 µM
TGI (MALME-3M melanoma): 34.8 µM
TGI (MCF7 breast): 36.3 µM
TGI (MDA-MB-231 breast): 34.2 µM
TGI (MDA-MB-435): 33 µM
TGI (MDA-N): 35.6 µM
TGI (MOLT-4 leukemia): 40.7 µM
TGI (NCI-H226 lung): 36.6 µM
TGI (NCI-H23 lung): 32.9 µM
TGI (NCI-H460 lung): 39.9 µM
TGI (NCI-H522 lung): 46.8 µM
TGI (NCI/ADR-RES ovarian): 43.6 µM
TGI (OVCAR-3 ovarian): 35 µM
TGI (OVCAR-4 ovarian): 36.5 µM
TGI (OVCAR-5 ovarian): 35.6 µM
TGI (OVCAR-8 ovarian): 38.2 µM
TGI (PC-3 prostate): 32.2 µM
TGI (RPMI-8226 leukemia): > 100 µM
TGI (RXF 393 renal): 33 µM
TGI (SF-268 CNS): 43.2 µM
TGI (SF-295 CNS): 33.9 µM
TGI (SF-539 CNS): 36 µM
TGI (SK-MEL-2 melanoma): 34.2 µM
TGI (SK-MEL-28 melanoma): 35.6 µM
TGI (SK-MEL-5 melanoma): 31 µM
TGI (SK-OV-3 ovarian): 49.9 µM
TGI (SN12C renal): 33.2 µM
TGI (SNB-19 CNS): 44.9 µM
TGI (SNB-75 CNS): 36.1 µM
TGI (SR leukemia): 52.1 µM
TGI (SW-620 colon): > 100 µM
TGI (T-47D breast): 36 µM
TGI (TK-10 renal): 37.4 µM
TGI (U251 CNS): 43.2 µM
TGI (UACC-257 melanoma): 29.5 µM
TGI (UACC-62 melanoma): 34.3 µM
TGI (UO-31 renal): 34.9 µM

CC(=O)OC1CC2(C)C(=CC1C1SCCS1)CCC1C2CCC2(C)C(OC(C)=O)CCC12 (stereo unspecified)
TGI (786-0 renal): > 100 µM
TGI (A498 renal): > 100 µM
TGI (A549 NSCLC): > 100 µM
TGI (ACHN renal): > 100 µM
TGI (BT-549 breast): > 100 µM
TGI (CAKI-1 renal): > 100 µM
TGI (CCRF-CEM leukemia): > 100 µM
TGI (COLO 205 colon): > 100 µM
TGI (DU-145 prostate): > 100 µM
TGI (EKVX NSCLC): > 100 µM
TGI (HCT-116 colon): > 100 µM
TGI (HCT-15 colon): > 100 µM
TGI (HL-60(TB) leukemia): > 100 µM
TGI (HOP-62 NSCLC): > 100 µM
TGI (HOP-92 NSCLC): > 100 µM
TGI (HS 578T breast): 49.9 µM
TGI (HT29 colon): > 100 µM
TGI (IGROV1 ovarian): > 100 µM
TGI (K-562 leukemia): > 100 µM
TGI (KM12 colon): > 100 µM
TGI (LOX IMVI melanoma): > 100 µM
TGI (M14 melanoma): > 100 µM
TGI (MALME-3M melanoma): > 100 µM
TGI (MCF7 breast): > 100 µM
TGI (MDA-MB-231 breast): > 100 µM
TGI (MDA-MB-435): > 100 µM
TGI (MDA-N): > 100 µM
TGI (MOLT-4 leukemia): > 100 µM
TGI (NCI-H226 lung): > 100 µM
TGI (NCI-H23 lung): > 100 µM
TGI (NCI-H460 lung): > 100 µM
TGI (NCI-H522 lung): > 100 µM
TGI (NCI/ADR-RES ovarian): > 100 µM
TGI (OVCAR-3 ovarian): > 100 µM
TGI (OVCAR-4 ovarian): > 100 µM
TGI (OVCAR-5 ovarian): > 100 µM
TGI (OVCAR-8 ovarian): > 100 µM
TGI (PC-3 prostate): > 100 µM
TGI (RPMI-8226 leukemia): > 100 µM
TGI (RXF 393 renal): 67.3 µM
TGI (SF-268 CNS): > 100 µM
TGI (SF-295 CNS): 90 µM
TGI (SF-539 CNS): > 100 µM
TGI (SK-MEL-2 melanoma): > 100 µM
TGI (SK-MEL-28 melanoma): > 100 µM
TGI (SK-MEL-5 melanoma): > 100 µM
TGI (SK-OV-3 ovarian): > 100 µM
TGI (SN12C renal): > 100 µM
TGI (SNB-19 CNS): > 100 µM
TGI (SNB-75 CNS): 63.1 µM
TGI (SR leukemia): > 100 µM
TGI (SW-620 colon): > 100 µM
TGI (T-47D breast): > 100 µM
TGI (TK-10 renal): > 100 µM
TGI (U251 CNS): > 100 µM
TGI (UACC-257 melanoma): > 100 µM
TGI (UACC-62 melanoma): > 100 µM
TGI (UO-31 renal): > 100 µM

Source: PubChem BioAssay (NCI)
